From patent US20260317324A1, “BIFUNCTIONAL COMPOUNDS FOR DEGRADING BRAF VIA UBIQUITIN PROTEOSOME PATHWAY” (Nurix Therapeutics, Inc., priority 2023, published 2026) come the findings set out here.

Assay type in all cases: cell-based
Assay [1] deals with T1, BRAF G466V (Homo sapiens, UniProt P15056, G466V).
T1 construct: Horizon Discovery (HCT-116 BRAF−/− cells); host or cells: HCT-116 BRAF−/− cells, clone 8, lentiviral transduction
In words: BRAF HiBiT degradation assay, C-terminal HiBiT-tagged BRAF G466V overexpressed in HCT-116 BRAF−/− cells (clone 8), Nano-Glo HiBiT Lytic assay. The procedure, abridged: (§1)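 We quantified degradation of the C-terminally HiBiT-tagged, overexpressed mutant by lytic luminescence, normalizing to DMSO-treated cells with wild-type HCT-116 background subtracted. Dose series ran from 1 μM to 0.01 nM at 0.2% DMSO. Observed Dmax is % degraded at maximal effect.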

Assay [2] concerns the target T2, BRAF V600E (Homo sapiens, UniProt P15056, V600E).
T2 construct: endogenous C-terminal HiBiT fusion tag on BRAF V600E allele; endogenous in cells; host or cells: A375 clone 1F10 (CRISPR-Cas9 knock-in of the HiBiT tag; parental A375 from ATCC)
In words: BRAF HiBiT degradation assay, C-terminal HiBiT-tagged BRAF V600E A375 cells (clone 1F10), Nano-Glo HiBiT Lytic assay. The settings on record: for Dmax: A-375. The procedure, abridged:
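Steps: seed HiBiT-tagged A375 clone 1F10 cells; incubate 24 h, 37 °C, 5% CO2; add compound (11 half-log points from 1 μM, 0.2% DMSO); lyse with HiBiT detection reagent plus LgBiT for 10 min; read luminescence; fit % protein remaining against concentration.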
(With HiBiT, luminescence reflects the tagged protein that the partner subunit can reach.)

Assay [3] addresses T3, BRAF G469A (Homo sapiens, UniProt P15056, G469A).
T3 construct: Horizon Discovery (HCT-116 BRAF−/− cells); host or cells: HCT-116 BRAF−/− cells, clone 34, lentiviral transduction
Put plainly: BRAF HiBiT degradation assay, C-terminal HiBiT-tagged BRAF G469A overexpressed in HCT-116 BRAF−/− cells (clone 34), Nano-Glo HiBiT Lytic assay. Summed up:
as §1

Assay [4] concerns the target T4, BRAF D594G (Homo sapiens, UniProt P15056, D594G).
T4 construct: Horizon Discovery (HCT-116 BRAF−/− cells); host or cells: HCT-116 BRAF−/− cells, clone 63, lentiviral transduction
Put plainly: BRAF HiBiT degradation assay, C-terminal HiBiT-tagged BRAF D594G overexpressed in HCT-116 BRAF−/− cells (clone 63), Nano-Glo HiBiT Lytic assay. Summed up:
as §1

[5] abbreviates: BRAF G466V, DC50 at 50%: fitted conc. at Y=50.
Setting [6] is: HCT-116, BRAF G466V, percentage protein degraded at maximal compound effect relative to DMSO.
Where [7] appears, read: A375 (BRAF V600E), DC50 at 50%: fitted conc. at Y=50.
Where [8] appears, read: A375 (BRAF V600E), percentage protein degraded at maximal compound effect relative to DMSO.
The mark [9] stands for this setting: Class 2, BRAF G469A, DC50 at 50%: fitted conc. at Y=50.
The mark [10] stands for this setting: HCT-116, Class 2, BRAF G469A, percentage protein degraded at maximal compound effect relative to DMSO.
Where [11] appears, read: BRAF D594G, DC50 at 50%: fitted conc. at Y=50.
Where [12] appears, read: HCT-116, BRAF D594G, percentage protein degraded at maximal compound effect relative to DMSO.
[13] abbreviates: BRAF G466V (Class 3), HCT-116 BRAF−/− cells, DC50 at 50% degradation.
Setting [14] is: BRAF G466V (Class 3), HCT-116 BRAF−/− cells, observed Dmax relative to DMSO control.
Where [15] appears, read: A375 (BRAF V600E, Class 1), DC50 at 50% degradation.
Setting [16] is: A375 (BRAF V600E, Class 1), observed Dmax, % protein degraded relative to DMSO control.
The mark [17] stands for this setting: BRAF G469A (Class 2), HCT-116 BRAF−/− cells, DC50 at 50% degradation.
[18] abbreviates: BRAF G469A (Class 2), HCT-116 BRAF−/− cells, observed Dmax relative to DMSO control.
[19] abbreviates: BRAF D594G (Class 3), HCT-116 BRAF−/− cells, DC50 at 50% degradation.
Setting [20] is: BRAF D594G (Class 3), HCT-116 BRAF−/− cells, observed Dmax relative to DMSO control.

Where only a bound is given, the exact number is not on record here.

T1 sequence (P15056 whole entry G466V): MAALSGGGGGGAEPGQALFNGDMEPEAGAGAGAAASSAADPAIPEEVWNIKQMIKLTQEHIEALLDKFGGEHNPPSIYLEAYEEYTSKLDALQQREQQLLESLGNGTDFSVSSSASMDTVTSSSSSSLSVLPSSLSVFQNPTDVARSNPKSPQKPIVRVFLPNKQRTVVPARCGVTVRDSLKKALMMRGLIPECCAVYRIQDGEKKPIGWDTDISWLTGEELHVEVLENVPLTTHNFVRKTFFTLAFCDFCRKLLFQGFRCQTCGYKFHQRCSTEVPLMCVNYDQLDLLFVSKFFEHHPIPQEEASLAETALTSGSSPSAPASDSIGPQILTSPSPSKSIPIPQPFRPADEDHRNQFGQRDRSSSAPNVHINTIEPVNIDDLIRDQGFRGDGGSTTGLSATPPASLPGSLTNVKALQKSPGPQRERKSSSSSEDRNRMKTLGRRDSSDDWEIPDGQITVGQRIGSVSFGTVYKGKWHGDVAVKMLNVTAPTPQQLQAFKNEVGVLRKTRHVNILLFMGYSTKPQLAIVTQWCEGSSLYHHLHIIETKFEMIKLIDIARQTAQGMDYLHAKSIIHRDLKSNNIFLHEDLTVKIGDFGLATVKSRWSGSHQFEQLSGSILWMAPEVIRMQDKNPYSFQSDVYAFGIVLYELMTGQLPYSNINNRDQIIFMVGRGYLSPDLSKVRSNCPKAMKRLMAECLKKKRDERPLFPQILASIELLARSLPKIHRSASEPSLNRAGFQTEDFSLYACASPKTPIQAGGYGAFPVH
T3 sequence (P15056 whole entry G469A): as the sequence (P15056 whole entry G466V) above, with V466G, G469A counted along it
T4 sequence (P15056 whole entry D594G): as the sequence (P15056 whole entry G466V) above, with V466G, D594G counted along it
T2 sequence (P15056 whole entry V600E, the tested form may be a part): as the sequence (P15056 whole entry G466V) above, with V466G, V600E counted along it

As for `CCCS(=O)(=O)Nc1cccc(-c2nc(C(C)(C)C)sc2-c2ccnc(Nc3cnn(CC4CCN(C(=O)[C@H]5CC[C@H](Oc6ccc(C7CCC(=O)NC7=O)cc6)CC5)CC4)c3)n2)c1F` (mixture of isomers) [Compound 118, N-{3-[2-tert-butyl-5-(2-{[1-({1-[(1r,4r)-4-{4-[(3RS)-2,6-dioxopiperidin-3-yl]phenoxy}cyclohexanecarbonyl]piperidin-4-yl}methyl)-1H-pyrazol-4-yl]amino}pyrimidin-4-yl)-1,3-thiazol-4-yl]-2-fluorophenyl}propane-1-sulfonamide], the half-maximal degradation concentration (DC50) (commonly the concentration giving 50% degradation) in assay [1] (setting [5]) was greater than 500 nM; in assay [2] (setting [7]), less than 10 nM; in assay [3] (setting [9]), greater than 500 nM; in assay [4] (setting [11]), greater than 500 nM. The Dmax (usually the largest share of the target that was removed) in assay [1] (setting [6]) was less than 30%; in assay [2] (setting [8]) it was greater than 70%; in assay [3] (setting [10]), less than 30%; in assay [4] (setting [12]) it was 30 to 70%.

Regarding `CCCS(=O)(=O)Nc1cccc(-c2nc(C(C)(C)C)sc2-c2ccnc(Nc3cnn(CC4CCN(C[C@H]5CC[C@H](Oc6ccc(C7CCC(=O)NC7=O)cc6)CC5)CC4)c3)n2)c1F` (mixture of isomers) [Compound 84, N-(3-{2-tert-butyl-5-[2-({1-[(1-{[(1r,4r)-4-{4-[(3RS)-2,6-dioxopiperidin-3-yl]phenoxy}cyclohexyl]methyl}piperidin-4-yl)methyl]-1H-pyrazol-4-yl}amino)pyrimidin-4-yl]-1,3-thiazol-4-yl}-2-fluorophenyl)propane-1-sulfonamide], the 50% degradation concentration (DC50) was greater than 500 nM in assay [1] (setting [5]), 50 to 500 nM in assay [2] (setting [7]), greater than 500 nM in assay [3] (setting [9]) and greater than 500 nM in assay [4] (setting [11]). Further, the Dmax in assay [1] (setting [6]) is less than 30%; in assay [2] (setting [8]) it was greater than 70%; in assay [3] (setting [10]) it was less than 30%; in assay [4] (setting [12]), 30 to 70%.

On to `CCCS(=O)(=O)Nc1cccc(-c2nc(C(C)(C)C)sc2-c2ccnc(Nc3ccc(N4CCN(CC5CCN(c6ccc([C@@H]7CCC(=O)NC7=O)cc6)CC5)CC4)cc3)n2)c1F` [Compound 58, N-[3-(2-tert-butyl-5-{2-[(4-{4-[(1-{4-[(3S)-2,6-dioxopiperidin-3-yl]phenyl}piperidin-4-yl)methyl]piperazin-1-yl}phenyl)amino]pyrimidin-4-yl}-1,3-thiazol-4-yl)-2-fluorophenyl]propane-1-sulfonamide], for which the 50% degradation concentration (DC50) was 50 to 500 nM in assay [1] (setting [5]), 10 to 50 nM in assay [2] (setting [7]), greater than 500 nM in assay [3] (setting [9]) and greater than 500 nM in assay [4] (setting [11]). Besides, the greatest degradation seen (Dmax) in assay [1] (setting [6]) is 30 to 70%; in assay [2] (setting [8]), greater than 70%; in assay [3] (setting [10]), 30 to 70%; in assay [4] (setting [12]), 30 to 70%.

For the molecule `CCCS(=O)(=O)Nc1cccc(-c2cn(-c3ccc(C4CCN(CC5CCN(c6ccc([C@@H]7CCC(=O)NC7=O)cc6)CC5)CC4)cc3)nc2-c2ccncc2)c1F` [Compound 15, N-{3-[1-(4-{1-[(1-{4-[(3S)-2,6-dioxopiperidin-3-yl]phenyl}piperidin-4-yl)methyl]piperidin-4-yl}phenyl)-3-(pyridin-4-yl)-1H-pyrazol-4-yl]-2-fluorophenyl}propane-1-sulfonamide], the DC50 is 10 to 50 nM in assay [1] (setting [5]), 10 to 50 nM in assay [2] (setting [7]), greater than 500 nM in assay [3] (setting [9]) and greater than 500 nM in assay [4] (setting [11]). In addition, the Dmax in assay [1] (setting [6]) was 30 to 70%; in assay [2] (setting [8]), greater than 70%; in assay [3] (setting [10]), less than 30%; in assay [4] (setting [12]) it was 30 to 70%.

For `O=C1CCC(c2ccc(N3CCC(CN4CCN(c5ccc(-n6cc(-c7cc(Cl)cc(NS(=O)(=O)N8CC(F)C8)c7F)c(-c7ccncc7)n6)cc5)CC4)CC3)nc2)C(=O)N1` (racemic) [Compound 332, Rac-N-{5-chloro-3-[1-(4-{4-[(1-{5-[(3R)-2,6-dioxopiperidin-3-yl]pyridin-2-yl}piperidin-4-yl)methyl]piperazin-1-yl}phenyl)-3-(pyridin-4-yl)-1H-pyrazol-4-yl]-2-fluorophenyl}-3-fluoroazetidine-1-sulfonamide], the 50% degradation concentration (DC50) in assay [1] (setting [13]), in assay [2] (setting [15]), in assay [3] (setting [17]) and in assay [4] (setting [19]) was less than 10 nM each time. The Dmax is greater than 70% in assay [1] (setting [14]), greater than 70% in assay [2] (setting [16]), greater than 70% in assay [3] (setting [18]) and 30 to 70% in assay [4] (setting [20]).

Take `CCCS(=O)(=O)Nc1cccc(-c2nc(C(C)(C)C)sc2-c2ccnc(Nc3cccc(OC4CCN(CC[C@H]5CCN(c6ccc(C7CCC(=O)NC7=O)cn6)C5)CC4)c3)n2)c1F` (mixture of isomers) [Compound 69, N-(3-{2-tert-butyl-5-[2-({3-[(1-{2-[(3S)-1-{5-[(3RS)-2,6-dioxopiperidin-3-yl]pyridin-2-yl}pyrrolidin-3-yl]ethyl}piperidin-4-yl)oxy]phenyl}amino)pyrimidin-4-yl]-1,3-thiazol-4-yl}-2-fluorophenyl)propane-1-sulfonamide]: the DC50 in assay [1] (setting [5]) was greater than 500 nM; in assay [2] (setting [7]), 10 to 50 nM; in assay [3] (setting [9]), greater than 500 nM; in assay [4] (setting [11]), greater than 500 nM. For the same molecule, the greatest degradation seen (Dmax) is 30 to 70% in assay [1] (setting [6]), greater than 70% in assay [2] (setting [8]), less than 30% in assay [3] (setting [10]) and 30 to 70% in assay [4] (setting [12]).

`CCC(C)S(=O)(=O)Nc1cc(Cl)cc(-c2cn(-c3ccc(N4CCN(CC5CCN(c6ccc([C@@H]7CCC(=O)NC7=O)cn6)CC5)CC4)cc3)nc2-c2ccncc2)c1F` (mixture of isomers) [Compound 329, Rac-(R)—N-(5-chloro-3-(1-(4-(4-((1-(5-((S)-2,6-dioxopiperidin-3-yl)pyridin-2-yl)piperidin-4-yl)methyl)piperazin-1-yl)phenyl)-3-(pyridin-4-yl)-1H-pyrazol-4-yl)-2-fluorophenyl)butane-2-sulfonamide]: the 50% degradation concentration (DC50) was less than 10 nM in assay [1] (setting [13]), less than 10 nM in assay [2] (setting [15]), 10 to 50 nM in assay [3] (setting [17]) and less than 10 nM in assay [4] (setting [19]). In addition, the Dmax in assay [1] (setting [14]), in assay [2] (setting [16]), in assay [3] (setting [18]) and in assay [4] (setting [20]) was greater than 70% each time.

For `CCCS(=O)(=O)Nc1cccc(-c2nc(C(C)(C)C)sc2-c2ccnc(NCC(C)(C)C3CCN(CC4CCN(c5ccc(C(=O)N[C@H]6CCC(=O)NC6=O)nc5)CC4)CC3)n2)c1F` [Compound 146, 5-{4-[(4-{1-[(4-{2-tert-butyl-4-[2-fluoro-3-(propane-1-sulfonamido)phenyl]-1,3-thiazol-5-yl}pyrimidin-2-yl)amino]-2-methylpropan-2-yl}piperidin-1-yl)methyl]piperidin-1-yl}-N-[(3S)-2,6-dioxopiperidin-3-yl]pyridine-2-carboxamide], the DC50 was less than 10 nM in assay [1] (setting [5]), 50 to 500 nM in assay [2] (setting [7]), greater than 500 nM in assay [3] (setting [9]) and greater than 500 nM in assay [4] (setting [11]). In addition, the Dmax in assay [1] (setting [6]), in assay [2] (setting [8]), in assay [3] (setting [10]) and in assay [4] (setting [12]) was 30 to 70% in each case.

In the case of `CCC(C)S(=O)(=O)Nc1cc(Cl)cc(-c2cn(-c3ccc(N4CCN(CC5CCN(c6ccc([C@H]7CCC(=O)NC7=O)cc6)CC5)CC4)cc3)nc2-c2ccncc2)c1F` (mixture of isomers) [Compound 330, (2RS)—N-{5-chloro-3-[1-(4-{4-[(1-{4-[(3R)-2,6-dioxopiperidin-3-yl]phenyl}piperidin-4-yl)methyl]piperazin-1-yl}phenyl)-3-(pyridin-4-yl)-1H-pyrazol-4-yl]-2-fluorophenyl}butane-2-sulfonamide], the half-maximal degradation concentration (DC50) was less than 10 nM in assay [1] (setting [13]), less than 10 nM in assay [2] (setting [15]), 10 to 50 nM in assay [3] (setting [17]) and less than 10 nM in assay [4] (setting [19]). The greatest degradation seen (Dmax) in assay [1] (setting [14]) was greater than 70%; in assay [2] (setting [16]), greater than 70%; in assay [3] (setting [18]), 30 to 70%; in assay [4] (setting [20]) it was 30 to 70%.
